Patent publication US20050154061A1, “Acetic acid derivatives” (Bayer Aktiengesellschaft, priority 2001, published 2005)

Target: T1, GAL4-PPARδ chimera (Homo sapiens, UniProt Q03181)
T1 construct: expressed in transfected cells
Experiment: Cellular transactivation assay (luciferase reporter)
Type: cell-based
Conditions: CHO cells stably expressing GAL4-PPARδ chimera and luciferase reporter; 24 hours stimulation
Text: Cellular Transactivation Assay:
A cellular assay is used to identify activators of the peroxisome proliferator-activated receptor delta (PPAR-delta).
Since mammalian cells contain different endogenous nuclear receptors which may complicate an unambiguous interpretation of the results, an established chimera system is used in which the ligand binding domain of the human PPARδ receptor is fused to the DNA binding domain of the yeast transcription factor GAL4. The resulting GAL4-PPARδ chimera is co-transfected and stably expressed in CHO cells having a reporter construct.
The reporter construct, which contains five copies of the GAL4 binding site upstream of a thymidine kinase promoter, expresses firefly luciferase (Photinus pyralis) following activation and binding of GAL4-PPARδ.
Transactivation Assay (Luciferase Reporter):
CHO (chinese hamster ovary) cells are sown in CHO-A-SFM medium (GIBCO), supplemented by 2.5% foetal calf serum, 1% penicillin/streptomycin (GIBCO), at a cell density of 2×10^3 cells per well in a 384 well plate (Greiner). The cells are cultivated at 37° C. for 48 h and then stimulated. To this end, the substances to be tested are taken up in the abovementioned medium and added to the cells. After a stimulation period of 24 hours, the luciferase activity is measured using a video camera. The relative light units measured give, as a function of the substance concentration, a sigmoidal stimulation curve.

T1 sequence (Q03181 with tags, fused parts or gaps limits assumed): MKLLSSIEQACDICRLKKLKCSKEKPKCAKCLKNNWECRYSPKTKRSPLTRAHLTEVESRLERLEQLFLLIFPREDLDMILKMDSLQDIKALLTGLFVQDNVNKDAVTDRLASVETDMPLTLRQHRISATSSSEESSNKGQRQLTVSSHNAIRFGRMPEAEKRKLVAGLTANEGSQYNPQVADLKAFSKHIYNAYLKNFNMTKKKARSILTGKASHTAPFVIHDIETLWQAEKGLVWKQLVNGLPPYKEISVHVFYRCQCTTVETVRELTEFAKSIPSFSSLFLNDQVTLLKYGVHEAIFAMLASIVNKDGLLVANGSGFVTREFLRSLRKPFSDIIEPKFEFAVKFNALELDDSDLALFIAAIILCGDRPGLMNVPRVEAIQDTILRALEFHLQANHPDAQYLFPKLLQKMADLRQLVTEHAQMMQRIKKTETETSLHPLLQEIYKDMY

An EC50 of 1 to 100 nM was found for Cc1cc(CN(CC(=O)Nc2ccc(Cl)cc2Cl)C2CCCCC2)ccc1OC(C)(C)C(=O)O [Example 1, 2-[4-[[[2-[(2,4-Dichlorophenyl)amino]-2-oxoethyl]cyclohexylamino]methyl]-2-methylphenoxy]-2-methylpropanoic Acid] in this work.
An EC50 of 1 to 100 nM was found for Cc1cc(CN(CC(=O)Nc2ccc(Cl)cc2Cl)C2CCCCC2)ccc1OCC(=O)O [Example 2, 2-[4-[[[2-[(2,4-Dichlorophenyl)amino]-2-oxoethyl]cyclohexylamino]methyl]-2-methylphenoxy]acetic Acid] in this work.
An EC50 of 1 to 100 nM was found for Cc1cc(CN(CC(=O)Nc2ccc(Cl)cc2Cl)C2C(C)CCC2C)ccc1OC(C)(C)C(=O)O (stereo not shown) [Example 3, 2-[4-[[[2-[(2,4-Dichlorophenyl)amino]-2-oxoethyl]-(2,5-dimethylcyclopentyl)amino]methyl]-2-methylphenoxy]-2-methylpropanoic Acid] in this work.
An EC50 of 1 to 100 nM was found for Cc1cc(CN(CCNc2ccc(Cl)cc2Cl)C2CCCCC2)ccc1OC(C)(C)C(=O)O [Example 4, 2-{4-[(Cyclohexyl{2-[(2,4-dichlorophenyl)amino]ethyl}amino)methyl]-2-methylphenoxy}-2-methylpropanoic Acid] in this work.
An EC50 of 1 to 100 nM was found for Cc1ccc(NC(=O)CN(Cc2ccc(OC(C)C(=O)O)c(C)c2)C2CCCCC2)c(C)c1 (stereo not shown) [Example 6, 2-[4-[[[2-[(2,4-Dimethylphenyl)amino]-2-oxoethyl]cyclohexylamino]methyl]-2-methylphenoxy]propanoic Acid] in this work.
An EC50 of 1 to 100 nM was found for Cc1cc(CN(CC(=O)Nc2ccc(Cl)cc2Cl)C2CCCC2)ccc1OC(C)C(=O)O (stereo not shown) [Example 8] in this work.
An EC50 of 1 to 100 nM was found for CC(C)(Oc1ccc(CN(CC(=O)Nc2ccc(Cl)cc2Cl)C2CCCC2)cc1)C(=O)O [Example 9] in this work.
